Data taken from patent publication US5545667A, “Methods for treating neoplasms with betaines” (The Clorox Company, priority 1994, dated 1996).
Counter-ions that a name gives are not always drawn.

Columns and labels:
alloreactive Tc cells = conditions: dosages between 10 ng/ml and 100 ug/ml; WO85/05031; cited from earlier work
PAM 212 cells = assay: Cell growth inhibition assay (surfactants, 3-4 days, Coulter counter), PAM 212; type: cell-based, mouse; conditions: PAM212; PAM 212 mouse keratinocyte-derived tumor cells; 3-4 days; read-out: IC50 (uM conc. inhibiting growth of the cells by 50%)
Method: (§1) Established cell lines are the system of choice for the prescreening of unknown compounds for antineoplastic activity. The tumor cell line screen works on the following principle. Cancer cells, if provided with enough nutrients, will grow unchecked in vitro, allowing researchers to grow many types of cancer cells outside the body. To perform an assay, standard amounts of the various cancer cells are placed in individual wells of a microtiter plate, and incubated with the potential antineoplastic compound of interest, for a sufficient period of time to allow for at least a 6-fold control growth, generally 1 to 5 days depending on cell origin. At the end of the incubation period, the cell lines are stained and assayed by a variety of means including, for example, proteins stains or a colorimeter for normal growth, growth inhibition or cytotoxicity. These assays measure a compound's ability to inhibit cell growth and a positive response of the compounds in these assays would be indicative of the therapeutic potential of these compounds. See, for example, the protocols and data presented in Laskin et al., (1979) Cancer Res 39:383-390 for 5-fluorouracil in mouse and human cells in culture.
(§2) A total of ten cell lines were used to evaluate the growth inhibitory potency of the various surfactants. In these studies, human, rat, mouse and bovine cells were used. A spectrum of different tumor cell types were used including those derived from keratinocytes (PAM 212), leukemias (HL-60, U-937 and K-562), an epitheloid carcinoma (HeLa) and melanoma (B-16). The B16 melanoma was used since this is a common cell type used to evaluate antimetastatic activity of test compounds. The effect of the surfactants on three fibroblast cell lines (C3H 10T1/2, NIH 3T3 and R6) were also evaluated for comparison to the tumor cell lines. The activity of the surfactants was also evaluated using pulmonary aortic endothelial cells for effectiveness as antiangiogenic agents.
(§3) PAM 212 cells are a mouse keratinocyte-derived tumor cell line. U-937 cells are a human histiocytic tumor cell line. HeLa cells are an epitheloid tumor cell line. Three murine fibroblast cells lines tested included the mouse fibroblast cell line, C3H 10T1/2, the rat fibroblast cell line R6, and the NIH 3T3 mouse fibroblast cell line. The human leukemia cell line HL-60 and the mouse melanoma B-16 cell were also tested. K-562 cells were from the American Type Culture Collection. All cells were grown in Dulbecco's modified Eagle's medium in a 37° C. incubator in an atmosphere of 5% CO2.
(§4) For growth inhibition assays, cells were seeded at low density (2.5×10^4 cells in 0.5 ml of culture medium) into 24-well tissue culture plates (Falcon Labware, Lincoln Park, N.J.). After 24 hours at 37° C., increasing concentrations (1 to 100 uM) of the surfactants were added to the cells in the culture plate. Control cultures were incubated in the absence of any surfactant. The cells were then incubated for 3-4 days to allow for growth. Cells from individual wells in the culture plate were then removed and duplicate samples taken for counting using a Coulter counter. To remove adherent cells the plates were treated with 0.25% trypsin/0.2% EDTA (GIBCO, Grand Island, N.Y.).

C3H 10T1/2 cells = assay: Cell growth inhibition assay, C3H 10T1/2; type: cell-based, mouse; conditions: C3H 10T1/2 mouse fibroblasts; 3-4 days; read-out: IC50 (uM conc. inhibiting growth of the cells by 50%)
Method: as §1, §2, §3, §4

HL-60 cells = assay: Cell growth inhibition assay, HL-60; type: cell-based, human
Method: as §1, §2, §3, §4

NIH 3T3 cells = assay: Cell growth inhibition assay, NIH 3T3; type: cell-based, mouse; conditions: NIH3T3; NIH 3T3 mouse fibroblasts; 3-4 days; read-out: IC50 (uM conc. inhibiting growth of the cells by 50%)
Method: as §1, §2, §3, §4

K-562 cells = assay: Cell growth inhibition assay, K-562; type: cell-based; conditions: Homo sapiens, K562; K-562 leukemia cells; 3-4 days; read-out: IC50 (uM conc. inhibiting growth of the cells by 50%)
Method: as §1, §2, §3, §4

B-16 cells = assay: Cell growth inhibition assay, B-16 melanoma; type: cell-based, mouse; conditions: B16; B-16 mouse melanoma cells; 3-4 days; read-out: IC50 (uM conc. inhibiting growth of the cells by 50%)
Method: as §1, §2, §3, §4

R6 cells = assay: Cell growth inhibition assay, R6; type: cell-based, rat; conditions: Fibroblast; R6 rat fibroblasts; 3-4 days; read-out: IC50 (uM conc. inhibiting growth of the cells by 50%)
Method: as §1, §2, §3, §4

CPA-5 cells = assay: Cell growth inhibition assay, CPA-5 endothelial cells; type: cell-based, bovine; conditions: Bos taurus, CPA-5 bovine aortic endothelial cells, 3-4 days, read-out: IC50 (uM conc. inhibiting growth of the cells by 50%)
Description: as §2, §3, §4
The compounds were tested as inhibitors of growth in the bovine aortic endothelial cell line CPA-5 as taught in Example 2 in order to evaluate the possibility that they may be anti-angiogenesis agents. A hallmark of angiogenesis is the outgrowth of endothelial cells which are required in the formation of new blood vessels. This process is a critical factor in the vascularization of tumors. Inhibition of neovascularization limits the growth of tumors and would be an effective means of treating cancer. FIG. 3 illustrates that three of the compounds, 8-3S, 12-5B and 12-1B, had no activity against the CPA-5 cell line in the concentration range tested (IC50 =>100 uM), while only relatively high concentrations of 12-3S (IC50 =70 uM) were effective in inhibiting the growth of CPA-5 cells. As indicated above, with several exceptions, these compounds were also not very effective in inhibiting the growth of each of the other cell types.

[1] = Critical micelle concentration (cmc); type: physicochemical
Description: "Critical micelle concentration" or "cmc" refers to the point at which micelle formation begins.

ten cell lines = assay: Cell growth inhibition assays, panel of cell lines; type: cell-based, human, rat, mouse and bovine
Description: as §2, §3, §4

[2] = system: HeLa cells, DNA synthesis; assay: DNA synthesis in HeLa cells (3H-thymidine); type: cell-based
Method: (§5) The 16-5B compound was evaluated further using HeLa cells to gain some insight into the mechanism of action of this group of compounds. In these studies, the ability of this compound to inhibit macromolecular synthesis in the cells was examined. The effects of 16-5B on DNA, RNA and protein synthesis was monitored using labeled thymidine, uridine or leucine, respectively. These precursors readily incorporate into the appropriate cellular macromolecules in the cells.
(§6) For assays of macromolecular biosynthesis in HeLa cells, cells were seeded into 60 mm culture dishes (Falcon Labware, Lincoln Park, N.J.) at a density 1×10^5 /ml in 5 mls of cell culture medium. Cells were allowed to grow at 37° C. for 48 hours before use. Culture plates were then removed from the incubator and washed with phosphate buffered saline. The cells were then incubated with increasing concentrations of the 16-5B in 2 ml of serum-free Dulbecco's modified Eagle's medium supplemented with 0.075% sodium bicarbonate. Control cultures were incubated in cell culture medium without surfactant. […] Two 0.5 ml aliquots were neutralized and counted for radioactivity using a scintillation counter.

[3] = system: HeLa cells, RNA synthesis; assay: RNA synthesis in HeLa cells (3H-uridine); type: cell-based; conditions: Homo sapiens, FIG. 2, 2 hours 3H-uridine, read-out: IC50 for uridine uptake (RNA synthesis)
Method: as §5, §6

[4] = system: HeLa cells, protein synthesis; assay: Protein synthesis in HeLa cells (3H-leucine); type: cell-based; conditions: Homo sapiens, FIG. 2, 4 hours 3H-leucine, read-out: IC50 for leucine uptake (protein synthesis)
Method: as §5, §6

SMILES	immunosuppressive on alloreactive Tc cells (alloreactive Tc cells)	IC50 (PAM 212 cells) [µM]	IC50 (C3H 10T1/2 cells) [µM]	IC50 (HL-60 cells; HL-60 human leukemia cells, 3-4 days, read-out: IC50 (uM conc. inhibiting growth of the cells by 50%)) [µM]	fold greater sensitivity of HL-60 among the leukemia cells (HL-60 cells; HL-60 versus other leukemia cells) [fold]	IC50 (NIH 3T3 cells) [µM]	IC50 (K-562 cells) [µM]	IC50 (B-16 cells) [µM]	IC50 (R6 cells) [µM]	IC50 (CPA-5 cells) [µM]	cmc [1] [µM]	fold concentration required to inhibit K-562 and U-937 growth relative to HL-60 (ten cell lines; K-562 and U-937 versus HL-60)	fold concentration range spanned by the IC50's (ten cell lines; across cell lines) [fold]	IC50 (ten cell lines; all / all other cell lines tested, read-out: IC50 over the cell lines tested (range or bound)) [µM]	activity against all of the cell lines tested (ten cell lines; growth inhibition)	selective inhibition of macromolecular synthesis ([2]; DNA, RNA and protein synthesis compared)	IC50 ([2]; Homo sapiens, FIG. 2, 1 hour 3H-thymidine, read-out: IC50 for thymidine uptake (DNA synthesis)) [µM]	IC50 [3] [µM]	IC50 [4] [µM]
CCCCCCCCCCCC[N+](C)(C)CCCCCCCCCCCC.[Br-] [didodecyl dimethyl ammonium bromide]	immunosuppressive on alloreactive Tc cells	–	–	–	–	–	–	–	–	–	–	–	–	–	–	–	–	–	–
CCCCCCCCCCCCCCCC[N+](C)(C)CCCCCC(=O)[O-] [16-5B, N-(5-carboxypentyl)-N,N-dimethyl-1-hexadecanaminium hydroxide inner salt]	–	6	53	0.5	10 to 100	24	5.5	20	18	18	10	approximately ten	100	0.5 to 53	considerable activity against all of the cell lines tested	does not appear to selectively inhibit any of these processes	30	30	30
